Measurements published in ChEMBL document CHEMBL2176994, “Radiosynthesis of PET radiotracer as a prodrug for imaging group II metabotropic glutamate receptors in vivo” (Bioorg Med Chem Lett, 2012).
One block for each compound: values may come before it.

Experiments:
[1] = biological target: T1, Metabotropic glutamate receptor 3 (Homo sapiens, UniProt Q14832); experiment: Agonist activity at mGLUR3 expressed in CHO cells; format: functional, cell-based
[2] = biological target: T2, Metabotropic glutamate receptor 2 (Homo sapiens, UniProt Q14416); experiment: Agonist activity at mGLUR2 expressed in CHO cells; format: functional, cell-based
T2 sequence (Q14416 whole entry): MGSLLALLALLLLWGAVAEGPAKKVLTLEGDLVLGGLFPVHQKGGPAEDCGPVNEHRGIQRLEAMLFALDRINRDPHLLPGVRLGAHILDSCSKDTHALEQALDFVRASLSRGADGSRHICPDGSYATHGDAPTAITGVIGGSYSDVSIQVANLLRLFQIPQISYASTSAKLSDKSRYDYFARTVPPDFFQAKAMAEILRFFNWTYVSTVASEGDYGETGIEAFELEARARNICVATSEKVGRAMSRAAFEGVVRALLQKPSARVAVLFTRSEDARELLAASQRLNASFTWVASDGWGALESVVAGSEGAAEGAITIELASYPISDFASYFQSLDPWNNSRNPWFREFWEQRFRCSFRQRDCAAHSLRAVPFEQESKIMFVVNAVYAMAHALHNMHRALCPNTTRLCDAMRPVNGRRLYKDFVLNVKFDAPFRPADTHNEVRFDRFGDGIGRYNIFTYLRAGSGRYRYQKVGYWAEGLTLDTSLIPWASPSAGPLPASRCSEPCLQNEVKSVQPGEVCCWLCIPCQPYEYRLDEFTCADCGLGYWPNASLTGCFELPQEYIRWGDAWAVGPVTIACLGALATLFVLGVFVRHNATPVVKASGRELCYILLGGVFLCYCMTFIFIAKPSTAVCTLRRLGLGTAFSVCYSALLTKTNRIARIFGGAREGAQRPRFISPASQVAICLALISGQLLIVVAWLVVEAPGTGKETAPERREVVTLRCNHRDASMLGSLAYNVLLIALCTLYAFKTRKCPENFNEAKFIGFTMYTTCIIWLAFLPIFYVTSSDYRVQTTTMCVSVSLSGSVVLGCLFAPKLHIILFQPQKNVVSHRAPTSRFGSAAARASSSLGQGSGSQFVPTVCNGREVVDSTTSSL

[3] = biological target: T1, Metabotropic glutamate receptor 3; experiment: Antagonist activity at mGLUR3 expressed in CHO cells assessed as inhibition of glutamate-induced inhibition of forskolin-stimulated cAMP production; format: functional, cell-based
[4] = biological target: T1, Metabotropic glutamate receptor 3; experiment: Binding affinity to mGLUR3
[5] = biological target: T2, Metabotropic glutamate receptor 2; experiment: Antagonist activity at mGLUR2 expressed in CHO cells assessed as inhibition of glutamate-induced inhibition of forskolin-stimulated cAMP production
[6] = biological target: T2, Metabotropic glutamate receptor 2; experiment: Binding affinity to mGLUR2
[7] = biological target: Metabotropic glutamate receptor 3 (Rattus norvegicus, UniProt P31422); experiment: Agonist activity at mGLUR3 in rat cerebral cortex assessed as inhibition of forskolin-stimulated cAMP production; format: functional, tissue-based
Sequence of Metabotropic glutamate receptor 3 (Rattus norvegicus, UniProt P31422) (P31422 whole entry): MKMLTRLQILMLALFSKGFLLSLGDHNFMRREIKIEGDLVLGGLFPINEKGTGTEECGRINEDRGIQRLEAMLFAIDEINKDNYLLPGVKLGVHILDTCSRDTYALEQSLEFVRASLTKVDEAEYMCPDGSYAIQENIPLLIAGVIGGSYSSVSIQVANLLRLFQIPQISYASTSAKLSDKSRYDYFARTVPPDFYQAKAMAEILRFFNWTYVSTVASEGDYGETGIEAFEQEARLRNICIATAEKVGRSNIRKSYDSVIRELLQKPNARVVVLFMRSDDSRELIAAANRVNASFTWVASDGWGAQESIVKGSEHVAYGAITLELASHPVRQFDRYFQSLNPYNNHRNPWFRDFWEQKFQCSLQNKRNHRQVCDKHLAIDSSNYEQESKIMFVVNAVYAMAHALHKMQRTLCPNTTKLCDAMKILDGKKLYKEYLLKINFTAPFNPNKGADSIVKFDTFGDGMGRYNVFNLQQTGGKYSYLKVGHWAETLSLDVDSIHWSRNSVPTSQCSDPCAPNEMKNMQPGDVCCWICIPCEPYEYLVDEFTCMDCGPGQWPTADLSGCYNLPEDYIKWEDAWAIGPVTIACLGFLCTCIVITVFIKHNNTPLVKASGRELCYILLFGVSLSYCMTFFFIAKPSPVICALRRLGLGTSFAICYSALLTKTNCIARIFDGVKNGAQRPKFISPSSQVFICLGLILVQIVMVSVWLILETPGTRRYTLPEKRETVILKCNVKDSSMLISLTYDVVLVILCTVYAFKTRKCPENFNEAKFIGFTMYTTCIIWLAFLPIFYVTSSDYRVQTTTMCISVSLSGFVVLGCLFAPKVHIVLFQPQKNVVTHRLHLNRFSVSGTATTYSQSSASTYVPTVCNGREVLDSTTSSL

[8] = Drug uptake in Sprague-Dawley rat olfactory lobe at […], iv from 20 to 40 mins by microPET analysis in presence of LY341495; format: ADME, organism-based; details: in vivo
Cerebellum = experiment: Drug uptake in Sprague-Dawley rat cerebellum at […], iv from 20 to 40 mins by microPET analysis in presence of LY341495; format: ADME, organism-based; details: in vivo
[9] = Drug uptake in Sprague-Dawley rat motor cortex at […], iv from 20 to 40 mins by microPET analysis in presence of LY341495; format: ADME, organism-based; details: in vivo
[10] = Drug uptake in Sprague-Dawley rat cingulate cortex at […], iv from 20 to 40 mins by microPET analysis in presence of LY341495; format: ADME, organism-based; details: in vivo
Striatum [11] = experiment: Drug uptake in Sprague-Dawley rat striatum at 0.4 uCi, iv from 20 to 40 mins by microPET analysis in presence of LY341495; format: ADME, organism-based; details: in vivo
Thalamus = experiment: Drug uptake in Sprague-Dawley rat thalamus at 0.4 uCi, iv from 20 to 40 mins by microPET analysis in presence of LY341495; format: ADME, organism-based; details: in vivo
Hippocampus [12] = experiment: Drug uptake in Sprague-Dawley rat hippocampus at […], iv from 20 to 40 mins by microPET analysis in presence of LY341495; format: ADME, organism-based; details: in vivo
Brain [13] = experiment: Drug uptake in Sprague-Dawley rat brain at […], iv from 20 to 40 mins by microPET analysis in presence of LY341495; format: ADME, organism-based; details: in vivo
Brain [14] = experiment: Drug uptake in Sprague-Dawley rat brain at […], iv at 2 mins by microPET analysis; format: ADME, organism-based; details: in vivo
Striatum [15] = experiment: Drug uptake in Sprague-Dawley rat striatum at […], iv from 1 to 40 mins by microPET analysis; format: ADME, organism-based; details: in vivo
Hippocampus [16] = experiment: Drug uptake in Sprague-Dawley rat hippocampus at […], iv from 1 to 40 mins by microPET analysis; format: ADME, organism-based; details: in vivo
Cortex = experiment: Drug uptake in Sprague-Dawley rat cortex at […], iv from 1 to 40 mins by microPET analysis; format: ADME, organism-based; details: in vivo
Brain [17] = experiment: Drug uptake in Sprague-Dawley rat brain at […], iv from 1 to 40 mins by microPET analysis; format: ADME, organism-based; details: in vivo
Brain [18] = experiment: Drug uptake in Sprague-Dawley rat brain at […], iv from 20 to 25 mins by microPET analysis; format: ADME, organism-based; details: in vivo

T1 sequence (Q14832 whole entry): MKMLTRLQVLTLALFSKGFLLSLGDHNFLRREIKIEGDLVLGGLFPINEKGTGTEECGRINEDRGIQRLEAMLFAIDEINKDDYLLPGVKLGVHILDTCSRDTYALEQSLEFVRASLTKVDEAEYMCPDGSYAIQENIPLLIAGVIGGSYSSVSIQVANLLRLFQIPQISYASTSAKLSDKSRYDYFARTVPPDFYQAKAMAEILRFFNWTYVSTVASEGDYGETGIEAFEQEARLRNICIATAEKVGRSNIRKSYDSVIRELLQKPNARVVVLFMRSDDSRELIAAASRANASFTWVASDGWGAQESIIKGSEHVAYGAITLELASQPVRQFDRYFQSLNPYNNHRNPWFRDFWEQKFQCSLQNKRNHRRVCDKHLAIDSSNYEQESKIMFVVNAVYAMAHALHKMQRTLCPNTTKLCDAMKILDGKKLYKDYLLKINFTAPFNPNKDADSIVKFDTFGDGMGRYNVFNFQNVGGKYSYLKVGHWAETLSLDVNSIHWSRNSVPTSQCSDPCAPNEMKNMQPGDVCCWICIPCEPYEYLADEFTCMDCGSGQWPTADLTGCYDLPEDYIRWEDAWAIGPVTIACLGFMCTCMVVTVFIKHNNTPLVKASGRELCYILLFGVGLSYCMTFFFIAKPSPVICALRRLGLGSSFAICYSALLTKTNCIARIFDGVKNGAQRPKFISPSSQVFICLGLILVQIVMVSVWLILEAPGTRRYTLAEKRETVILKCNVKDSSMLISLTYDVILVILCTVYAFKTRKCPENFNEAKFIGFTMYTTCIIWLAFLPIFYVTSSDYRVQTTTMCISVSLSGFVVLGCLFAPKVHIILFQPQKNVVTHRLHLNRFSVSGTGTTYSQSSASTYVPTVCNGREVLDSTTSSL

SMILES: N[C@@]1(C(=O)O)CC(=O)[C@@H]2[C@H]1[C@@]2(F)C(=O)O
EC50 [1]: 2.07 nM
EC50 [2]: 0.57 nM

IC50 [3]: 24 nM
Ki [4]: 4.5 nM
IC50 [5]: 20 nM
Ki [6]: 2.2 nM
SMILES: N[C@]1(C(=O)O)[C@H]2[C@@H](C[C@H]1OCc1ccc(Cl)c(Cl)c1)[C@]2(F)C(=O)O

EC50 [7]: 38 nM
SMILES: N[C@@]1(C(=O)O)CC[C@H]2[C@H](C(=O)O)[C@H]21

Drug uptake [8]: Active
Drug uptake (Cerebellum): Not Active
Drug uptake [9]: Not Active
Drug uptake [10]: Not Active
Drug uptake (Striatum [11]): Not Active
Drug uptake (Thalamus): Not Active
Drug uptake (Hippocampus [12]): Not Active
Drug uptake (Brain [13]): Not Active
Drug uptake (Brain [14]): 2.5 %ID/cm3
Drug uptake (Striatum [15]): Active
Drug uptake (Hippocampus [16]): Active
Drug uptake (Cortex): Active
Drug uptake (Brain [17]): Active
SMILES: COC(=O)[C@H]1C[C@@H]1[C@@](N)(CCc1cccc(O[11CH3])c1)C(=O)OC

Drug uptake (Brain [18]): Not Active
SMILES: [11CH3]Oc1cccc(CC[C@@](N)(C(=O)O)[C@H]2C[C@@H]2C(=O)O)c1
